In series [1] the target is T1, Cu^2+-induced Aβ1-42 aggregation (Homo sapiens, UniProt P05067).
T1 construct: Aβ1-42 (Sigma-Aldrich A9810, 20 μM) was dissolved in HEPES buffer; purchased Sigma-Aldrich A9810
In words: Cu^2+-induced Aβ1-42 aggregation, thioflavin T fluorometric detection. Type of series: biochemical. The following applies: ThT, compound stock 150 μM; for Disaggregation of Cu^2+-induced Aβ1-42 aggregation: Figure 4A. The protocol: To further detect the ability of compounds 6b, CQ and MT to disaggregate or inhibit the Cu^2+-induced Aβ1-42 aggregation, we conducted thioflavin T fluorometric detection ([Hu et al., 2019]).
Detection of the compounds for disaggregated and inhibitory effects on Cu^2+ induced Aβ1-42 aggregation. Aβ1-42 (Sigma-Aldrich A9810, 20 μM) was dissolved in HEPES buffer (pH = 6.6, containing 1% ammonium hydroxide). 10 μL of Aβ1-42 was previously incubated with or without Cu^2+ at 37°C for 3 days to pre-fibrillation. 10 μL of 6b, CQ, and MT (150 μM, in DMSO) were incubated before or after the pre-fibrillation of Aβ1-42 at 37°C for 1 day. After incubation, 170 μL of thioflavin T (5 μM, in 50 mM glycine-NaOH buffer) was added to mix well. After incubation for 5 min, the Aβ1-42 aggregation was detected by Microplate Reader (HITACHI, F-4700) with excitation/emission at 450/485 nm.

The target in the next series is T2, Aβ1–42 (Homo sapiens, UniProt P05067).
T2 construct: Aβ1−42 (Sigma-Aldrich) was dissolved in NH4OH (1% v/v) to get a stock solution; purchased Sigma-Aldrich
T2 sequence (P05067 672-713 limits assumed): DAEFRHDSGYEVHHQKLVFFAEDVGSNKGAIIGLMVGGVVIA
In words: Inhibition of self-mediated Aβ1–42 aggregation, thioflavin T fluorescence assay. Type of series: biochemical. To be noted: ThT assay, compounds 20 μM, mean of n = 3 ± SD.

Series [2] can be described thus: Parallel artificial membrane permeability assay for the blood-brain barrier (PAMPA-BBB). To be noted: for Papp / P e: PAMPA; for pred (predicted BBB permeation): classified from PAMPA-BBB Pe; for P e: can cross the blood-brain barrier.
A further series in a line: in vitro. The following applies: PAMPA. On the technique in general: PAMPA measures passive passage across an artificial lipid membrane.
A short description of series [3]: Oxygen radical absorbance capacity (ORAC-FL) assay. To be noted: compounds 5 µM, mean of n = 3 ± SD.
Description: The solution of 2,2′-azobis- (amidinopropane) dihydrochloride (AAPH) was prepared to a final concentration of 40 mM. The mixture of the tested compounds (20 µL) and FL (120 μL; 70 nM) was pre-incubated for 10 min at 37°C, 60 µL of the AAPH solution was added. The fluorescence was recorded every minute for 120 min (excitation, 485 nm; emission, 520 nm). The antioxidant curves (fluorescence versus time) were normalized to the curve of the blank.
Where f0 is the initial fluorescence reading at 0 min and fi is the fluorescence reading at time i. The net AUC was calculated by the expression: AUCsample—AUCblank. Regression equations between net AUC and Trolox concentration were calculated. ORAC-FL value of the tested compound expressed as Trolox equivalents.
For series [4] the following is noted: 13 commercial drugs for validation, literature value; ref Bibl a; cited from earlier work.

T1 sequence (P05067 672-713 limits assumed): as above

As a reminder, the inhibition is the relative decrease from the control value, in per cent. A higher inhibition goes with a response far below the control. `Oc1c(I)cc(Cl)c2cccnc12` [CQ, clioquinol, reference compound]: in series [1], the “Disaggregation of Cu^2+-induced Aβ1-42 aggregation” value is given as “significantly disaggregated”. Besides, at Aβ1–42, the inhibition at 20 µM amounted to 30.8 ± 1.08%.

As usually defined, the Papp is a coefficient for how fast a substance crosses the barrier. A high value points to fast passage. Consider `CN(C)CCCN1c2ccccc2Sc2ccc(Cl)cc21` [Chlorpromazinne, chlorpromazine, reference compound], for which, in series [2], the Papp turned out to be 6.63 ± 0.81 ×10⁻⁶ cm/s and the “pred (predicted BBB permeation)” value is “CNS+ (Compounds of high BBB permeation (CNS+) Pe>4.7)”.

Regarding `Oc1cccc2ccc(CNCCc3c[nH]c4ccccc34)nc12` [Compound 3a, 2-(((2-(1H-indol-3-yl)ethyl)amino)methyl)quinolin-8-ol], in “in vitro”, the Papp amounted to 8.08 ± 0.56 ×10⁻⁶ cm/s. The compound also had an ORAC in series [3] of 3.50 ± 0.12 Trolox equivalents. Also, in series [2], the “P e” value is greater than 4.7 and the “pred (predicted BBB permeation)” value is given as “CNS+ (Compounds of high BBB permeation (CNS+) Pe>4.7)”. In addition, at Aβ1–42, the inhibition at 20 µM worked out at 27.1 ± 5.01%.

Compound `COc1ccc2[nH]cc(CCNCc3ccc4cccc(O)c4n3)c2c1` [Compound 3b, 2-(((2-(5-methoxy-1H-indol-3-yl)ethyl)amino)methyl)quinolin-8-ol] registered a Papp in the series “in vitro” of 6.61 ± 0.22 ×10⁻⁶ cm/s. Also, in series [3], the ORAC amounted to 3.25 ± 0.10 Trolox equivalents. Moreover, in series [2], the “P e” value was greater than 4.7 and the “pred (predicted BBB permeation)” value is given as “CNS+ (Compounds of high BBB permeation (CNS+) Pe>4.7)”. This compound had an inhibition at 20 µM against Aβ1–42 of 18.2 ± 2.02%.

Take `Oc1ccc2[nH]cc(CCNCc3ccc4cccc(O)c4n3)c2c1` [Compound 3c, 2-(((2-(5-hydroxy-1H-indol-3-yl)ethyl)amino)methyl)quinolin-8-ol]: the Papp in the series “in vitro” is 4.81 ± 0.87 ×10⁻⁶ cm/s. In series [3], this compound showed an ORAC of 4.47 ± 0.18 Trolox equivalents. Moreover, in series [2], the “P e” value is given as greater than 4.7 and the “pred (predicted BBB permeation)” value is “CNS+ (Compounds of high BBB permeation (CNS+) Pe>4.7)”. At Aβ1–42, this compound gave an inhibition at 20 µM of 40.2 ± 2.89%.

The compound `Oc1cccc2ccc(CNCc3c[nH]c4ccccc34)nc12` [Compound 3d, 2-((((1H-indol-3-yl)methyl)amino)methyl)quinolin-8-ol] showed an ORAC in series [3] of 2.60 ± 0.20 Trolox equivalents. Further, in series [2], the Papp turned out to be 5.09 ± 1.32 ×10⁻⁶ cm/s, the “P e” value is given as greater than 4.7 and the “pred (predicted BBB permeation)” value is given as “CNS+ (Compounds of high BBB permeation (CNS+) Pe>4.7)”. Testing at 20 µM at Aβ1–42 gave an inhibition of 20.5 ± 4.72%.

In the series “in vitro”, `CN(CCc1c[nH]c2ccccc12)Cc1ccc2cccc(O)c2n1` [Compound 4, 2-(((2-(1H-indol-3-yl)ethyl)(methyl)amino)methyl)quinolin-8-ol] yielded a Papp of 9.87 ± 0.66 ×10⁻⁶ cm/s. Further, in series [3], the ORAC amounted to 2.93 ± 0.15 Trolox equivalents. In series [2], the “P e” value was greater than 4.7 and the “pred (predicted BBB permeation)” value is recorded as “CNS+ (Compounds of high BBB permeation (CNS+) Pe>4.7)”. Also, the inhibition at 20 µM against Aβ1–42 turned out to be 52.5 ± 6.47%.

Take `O=C(NCCc1c[nH]c2ccccc12)c1ccc2cccc(O)c2n1` [Compound 6a, N-(2-(1H-indol-3-yl)ethyl)-8-hydroxyquinoline-2-carboxamide]: the ORAC in series [3] is 2.49 ± 0.22 Trolox equivalents. Besides, in series [2], the Papp is 7.71 ± 0.61 ×10⁻⁶ cm/s, the “P e” value is reported as greater than 4.7 and the “pred (predicted BBB permeation)” value is “CNS+ (Compounds of high BBB permeation (CNS+) Pe>4.7)”. For the same compound, at 20 µM the inhibition on Aβ1–42 was 45.45 ± 0.41%.

Compound `O=C(NCc1c[nH]c2ccccc12)c1ccc2cccc(O)c2n1` [Compound 6d, N-((1H-indol-3-yl)methyl)-8-hydroxyquinoline-2-carboxamide] displayed an ORAC in series [3] of 2.32 ± 0.17 Trolox equivalents. For the same compound, in series [2], the Papp was determined as 6.81 ± 1.13 ×10⁻⁶ cm/s, the “P e” value is greater than 4.7 and the “pred (predicted BBB permeation)” value is “CNS+ (Compounds of high BBB permeation (CNS+) Pe>4.7)”. For the same compound, the inhibition at 20 µM on Aβ1–42 was determined as 19.2 ± 5.85%.

`O=C(Cc1c[nH]c2ccccc12)NCc1ccc(O)c2ncccc12` [Compound 11a, N-((8-hydroxyquinolin-5-yl)methyl)-2-(1H-indol-3-yl)acetamide] showed an ORAC in series [3] of 2.91 ± 0.16 Trolox equivalents. Further, in series [2], the Papp stood at 2.82 ± 0.42 ×10⁻⁶ cm/s and the “pred (predicted BBB permeation)” value is given as “CNS± (Compounds of uncertain BBB permeation (CNS+/ -) 4.7>Pe>1.8)”. The compound also showed an inhibition at 20 µM at Aβ1–42 of 44.7 ± 5.18%.

In series [3], `COc1ccc2[nH]cc(CC(=O)NCc3ccc(O)c4ncccc34)c2c1` [Compound 11b, N-((8-hydroxyquinolin-5-yl)methyl)-2-(5-methoxy-1H-indol-3-yl)acetamide] had an ORAC of 3.58 ± 0.12 Trolox equivalents. Further, in series [2], the Papp stood at 1.35 ± 0.25 ×10⁻⁶ cm/s and the “pred (predicted BBB permeation)” value is given as “CNS− (Compounds of low BBB permeation (CNS -) Pe<1.8)”. For the same compound, testing at 20 µM on Aβ1–42 gave an inhibition of 34.9 ± 2.91%.

In turn, `O=C(NCCc1c[nH]c2ccccc12)c1ccc2cccnc2c1O` [Compound 13a, N-(2-(1H-indol-3-yl)ethyl)-8-hydroxyquinoline-7-carboxamide] came in with an ORAC in series [3] of 1.06 ± 0.07 Trolox equivalents. Moreover, in series [2], the Papp amounted to 3.98 ± 0.45 ×10⁻⁶ cm/s and the “pred (predicted BBB permeation)” value was “CNS± (Compounds of uncertain BBB permeation (CNS+/ -) 4.7>Pe>1.8)”. Besides, at Aβ1–42, 20 µM produced 47 ± 6.25% inhibition.

`COc1ccc2[nH]cc(CCNC(=O)c3ccc4cccnc4c3O)c2c1` [Compound 13b, 8-hydroxy-N-(2-(5-methoxy-1H-indol-3-yl)ethyl)quinoline-7-carboxamide] yielded an ORAC in series [3] of 1.33 ± 0.02 Trolox equivalents. In series [2], the Papp is 1.12 ± 0.42 ×10⁻⁶ cm/s and the “pred (predicted BBB permeation)” value is recorded as “CNS− (Compounds of low BBB permeation (CNS -) Pe<1.8)”. The compound further came in with an inhibition at 20 µM against Aβ1–42 of 19.7 ± 2.06%.

As for `O=C(NCc1c[nH]c2ccccc12)c1ccc2cccnc2c1O` [Compound 13c, N-((1H-indol-3-yl)methyl) -8-hydroxyquinoline-7-carboxamide], in series [3], the ORAC is given as 0.94 ± 0.02 Trolox equivalents. Moreover, in series [2], the apparent permeability coefficient (Papp) stood at 2.65 ± 0.46 ×10⁻⁶ cm/s and the “pred (predicted BBB permeation)” value is on record as “CNS± (Compounds of uncertain BBB permeation (CNS+/ -) 4.7>Pe>1.8)”. For the same compound, 20 µM produced 38.6 ± 5.12% inhibition against Aβ1–42.

For the compound `COc1cc(/C=C/C(=O)CC(=O)/C=C/c2ccc(O)c(OC)c2)ccc1O` [Curcumin, reference compound], the inhibition at 20 µM against Aβ1–42 came out at 52.9 ± 6.38%.

Turning to `COc1ccc2[nH]cc(CCNC(C)=O)c2c1` [Melatonin], the “Disaggregation of Cu^2+-induced Aβ1-42 aggregation” value in series [1] is “mild disaggregated effect”. Further, the “Inhibition of Cu^2+-induced Aβ1-42 aggregation” value in series [1] (Figure 4B) is given as “weak inhibitory activity”. On Aβ1–42, this compound registered an inhibition at 20 µM of 39 ± 9.35%.

Regarding `CN1C(C(=O)Nc2ccccn2)=C(O)c2ccccc2S1(=O)=O` [piroxicam], the “Pe, Bibl” value in series [4] was 2.5 ×10⁻⁶ cm/s.

Regarding `CN(C)CCCN1c2ccccc2Sc2ccccc21` [promazine], the “Pe, Bibl” value in series [4] is 8.8 ×10⁻⁶ cm/s.

Source of the values: publication PMC11059093 (Frontiers in Chemistry, 2024).
